{"source": "patent US20100272791A1", "about": "“COMPOSITION HAVING EFFECT ON TREATMENT AND PREVENTION OF DRY EYE SYNDROME” (MD BIOALPHA CO., LTD., priority 2005, published 2010)", "key": {"corneal keratocytes [1]": {"system": "corneal keratocytes", "assay": "Proliferation of corneal keratocytes (CCK-8)", "format": "cell-based", "conditions": "uridine 0 μM to 10 μM, 48 hours; effect from 0.1 μM or higher; FIG. 4", "description": "Corneal keratocytes were incubated in a 96-well plate and stimulated with uridine (0 μM to 10 μM) for 48 hours. Cell count was carried out at 450 nm using a Cell counting kit-8 (CCK-8)."}, "ocular epithelial cells [2]": {"system": "ocular epithelial cells", "assay": "Production of nitric oxide (NO) in H2O2-stimulated corneal epithelial cells (Griess reagent)", "format": "cell-based", "conditions": "100 μM H2O2, then uridine 0 μM to 100 μM, 48 hours, concentration-dependent, FIG. 6"}, "corneal keratocytes [3]": {"system": "corneal keratocytes", "assay": "Production of nitric oxide (NO) in H2O2-stimulated corneal keratocytes (Griess reagent)", "format": "cell-based", "conditions": "100 μM H2O2, then uridine 0 μM to 100 μM, 48 hours, effect up to 50 μM, concentration-dependent, FIG. 3"}, "corneal keratocytes [4]": {"system": "corneal keratocytes", "assay": "Production of hyaluronic acid in corneal keratocytes (b-HABP plate assay)", "format": "cell-based", "conditions": "uridine 0 μM to 10 μM, 48 hours; effect up to 5 μM, concentration-dependent; FIG. 1", "description": "Corneal keratocytes were stimulated for 48 hours by treatment of the cells with uridine (0 μM to 10 μM). 100 μl of the cell culture was collected, and reacted with 100 μl of biotinylated hyaluronic acid binding protein (b-HABP, 50 ng/mL) at room temperature for 1 hour. On the day prior to experiments, 20 μg/mL of HA and a solution of 20 mM Na2CO3 were added to a 96-well plate which was then stored in a refrigerator for 24 hours, and washed with a standard assay buffer (SAB) three times. 1% BSA was added to the 96-well plate which was then reacted at room temperature for 90 min and washed with SAB three times to thereby prepare an HA-coated plate. The above-prepared cell culture was added to the HA-coated plate, and reacted with stirring at room temperature for 1 hour. Thereafter, the cell culture thus reacted was washed with SAB three times, followed by addition of Extra-avidin alkaline phosphatase (1:80000), reaction at room temperature for 30 min, and washing with SAB three times. 1 mg/mL of a disodium p-nitrophenyl solution in 100 mM NaCl and 5 mM MgCl was added to the cell culture which was then reacted for 20 to 60 min. Thereafter, 3N NaOH was added to terminate the reaction, and an amount of hyaluronic acid was measured at 405 nm."}, "dry eye patients": {"system": "dry eye patients", "assay": "Clinical test, oral uridine in dry eye patients (double blind, placebo)", "format": "in vivo, human", "conditions": "oral uridine 100 mg/day, three times a day for 3 months, versus placebo", "description": "At initial point of treatment and two weeks, one month, two months and three months after initiation of treatment, changes in corneal symptoms and conditions and the presence/absence of adverse side effects were objectively evaluated by slit-lamp microscopic examination, measurement of intraocular pressure, ophthalmoscopic examination, Schirmer test, impression cytology and analysis photography of anterior eye segment. In addition, subjective questionnaires of individual patients were prepared, and changes in subjective symptoms of patients and the presence/absence of adverse side effects were observed."}, "ocular epithelial cells [5]": {"system": "ocular epithelial cells", "assay": "Production of glycosaminoglycan in corneal epithelial cells (Biocolor assay kit)", "format": "cell-based", "conditions": "uridine 0 μM to 50 μM, 48 hours, concentration-dependent, FIG. 5", "description": "Ocular epithelial cells were stimulated for 48 hours by treatment with uridine (0 μM to 50 μM). The cell culture was collected, and an amount of glycosaminoglycan was measured at 550 nm using a Biocolor assay kit."}, "dry eye-induced rabbits": {"system": "dry eye-induced rabbits", "assay": "Concanavalin A-induced dry eye in rabbits, eye drops, impression cytology", "format": "in vivo, rabbit", "conditions": "uridine eye drops in phosphate-buffered saline (1% and 5%), compared to 0.1% hyaluronic acid positive control and PBS control; FIG. 7", "description": "Dry eye syndrome was induced by causing ocular inflammation via injection of concanavalin A into the lacrimal gland of rabbits (Journal of Ocular Pharmacology & Therapeutics 21(2), 139-148, 2005). Uridine was dissolved to a concentration of […] in a phosphate-buffered saline solution, respectively, and the resulting solutions were used as eye drops. A commercially available 0.1% hyaluronic acid preparation was used as a positive control group, and a phosphate-buffered saline solution was used as a control group. 1% and 5% uridine preparations, the hyaluronic acid preparation and the phosphate-buffered saline solution were respectively dropped into eyes of the dry eye-induced rabbits, and the impression cytology of ocular cells was performed to confirm alleviation of dry eye syndrome."}, "corneal keratocytes [6]": {"system": "corneal keratocytes", "assay": "Production of glycosaminoglycan in corneal keratocytes (Biocolor assay kit)", "format": "cell-based", "conditions": "uridine 0 μM to 50 μM, 48 hours, effect from 1 μM, concentration-dependent, FIG. 2", "description": "Corneal keratocytes were stimulated for 48 hours by treatment of the cells with uridine (0 μM to 50 μM). The cell culture was collected, and an amount of glycosaminoglycan was measured at 550 nm using a Biocolor assay kit."}}, "data": [{"smiles": "O=c1ccn([C@@H]2O[C@H](CO)[C@@H](O)[C@H]2O)c(=O)[nH]1", "note": "[uridine]", "values": [{"measurement": "proliferation of cells", "setting": "corneal keratocytes [1]", "value": "promoted proliferation of cells"}, {"measurement": "production of nitric oxide (NO)", "setting": "ocular epithelial cells [2]", "value": "inhibited production of nitric oxide (NO)"}, {"measurement": "production of nitric oxide (NO)", "setting": "corneal keratocytes [3]", "value": "inhibited production of nitric oxide (NO)"}, {"measurement": "production of hyaluronic acid", "setting": "corneal keratocytes [4]", "value": "promoted production of hyaluronic acid"}, {"measurement": "tear-secretion test (Schirmer test)", "setting": "dry eye patients; FIG. 8", "value": "significant difference"}, {"measurement": "corneal staining", "setting": "dry eye patients; FIG. 9", "value": "significant difference"}, {"measurement": "production of glycosaminoglycan", "setting": "ocular epithelial cells [5]", "value": "promoted production of glycosaminoglycan"}, {"measurement": "restoration of epithelial cells in the impression cytology of ocular cells", "setting": "dry eye-induced rabbits", "value": "significant restoration of epithelial cells"}, {"measurement": "production of glycosaminoglycan", "setting": "corneal keratocytes [6]", "value": "promoted production of glycosaminoglycan"}]}]}
